This is an account of results in article PMC6340882, “Targeting protein kinase CK2 and CDK4/6 pathways with a multi-kinase inhibitor ON108110 suppresses pro-survival signaling and growth in mantle cell lymphoma and T-acute lymphoblastic leukemia” (Oncotarget, 2018).

The test system of data set [1] is panel of solid tumor and leukemic cell lines. Kind of data set: Primary growth inhibition screen, MCLs and T-ALLs compared to other tumor types. In kind it is cell-based, human. The following applies: from GI50 values of primary screen. On the procedure: (§1) Cell lines were cultured in RPMI-1640 medium (Thermo Scientific) supplemented with 10% heat inactivated FBS and penicillin-streptomycin at 37°C under humidified conditions and 5% CO2. All cell lines tested negative for mycoplasma. […] Compounds were added 24 hrs post-plating at the indicated concentrations. Cell counts were determined from duplicate wells 96 hrs post-treatment using the Cell Titer Blue assay in conjunction with the GloMax plate reader (Promega).

For the next data set, the target named is CK2α2 (Homo sapiens, UniProt P19784). The data set is described as follows: In vitro kinase assay with recombinant protein (32P-ATP, filtermat). In kind it is biochemical. The following applies: recombinant CK2α2, independent in vitro kinase assay, 20μM ATP. On the procedure: (§2) (B) Structure of ON108110. (C) Calculation of IC50 values against CDK4 and CDK6 and (D) CK2α1 and CK2α2 by ON108110. Recombinant proteins were incubated with the indicated concentrations of ON108110 and subjected to in vitro kinase assays as described in the materials and methods section. Values obtained were plotted as a function of log drug concentration. IC50 values were determined by performing sigmoidal non-linear regression with a variable slope.
Chain of CK2α2 (P19784 whole entry): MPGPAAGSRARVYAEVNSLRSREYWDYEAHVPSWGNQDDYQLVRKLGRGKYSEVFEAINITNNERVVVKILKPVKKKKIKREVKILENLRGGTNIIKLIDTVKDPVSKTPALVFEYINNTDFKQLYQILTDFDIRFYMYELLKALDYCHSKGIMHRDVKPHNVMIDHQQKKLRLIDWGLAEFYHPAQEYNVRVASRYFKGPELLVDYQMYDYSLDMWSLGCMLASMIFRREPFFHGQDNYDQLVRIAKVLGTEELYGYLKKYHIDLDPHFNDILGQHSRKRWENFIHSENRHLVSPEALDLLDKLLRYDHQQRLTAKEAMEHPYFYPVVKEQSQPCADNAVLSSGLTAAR
(§3) Recombinant CDK4/CYCLIN D1 or CK2α1 were mixed with their respective synthetic peptide substrates (10ng) and incubated with DMSO or increasing concentrations of ON108110 in 20μl kinase buffer [50mM Tris-HCl (pH 7.5), 10mM MgCl2, 1mM EGTA, 2mM DTT and 0.01% NP-40] for 30 min. at room temperature. Kinase reactions were carried out for 20 min at 30°C in the presence of 5μl of substrate-ATP mixture (1μg RB, 20μM ATP, 20μCi γ-^32P-ATP). […] The filtermat was air-dried, blocked with methanol for 2 minutes followed by three washes with 75mM phosphoric acid. The filtermat was then air-dried and analyzed using a phosphoimager.

Another data set concerns the target CDK4 (Homo sapiens, UniProt P11802). The data set is described as above. The format is biochemical. The following applies: recombinant CDK4, independent in vitro kinase assay, 20μM ATP. On the procedure: as §2, §3
Another data set concerns the target CK2α1 (Homo sapiens, UniProt P68400). The description is as above. In kind it is biochemical. The conditions noted are these: recombinant CK2α1, independent in vitro kinase assay, 20μM ATP. How it is done: as §2, §3
A further data set deals with MiaPaca-2. The data set is described as follows: Growth inhibition (GI50), Cell Titer Blue. The conditions noted are these: Homo sapiens, MIA PaCa-2; MiaPaca-2, Pancreatic Cancer; 96 hrs post-treatment. The format is cell-based. How it is done:
as §1

Another data set concerns BT-20. Kind of data set: Growth inhibition (GI50), Cell Titer Blue. The conditions noted are these: Homo sapiens; BT-20, Breast Cancer; 96 hrs post-treatment. The format is cell-based. How it is done:
as §1

Another data set concerns MOLT-4. The data set is described as follows: Growth inhibition (GI50), Cell Titer Blue. In kind it is cell-based. The following applies: Homo sapiens; MOLT-4, Acute Lymphoblastic Leukemia; 96 hrs post-treatment. On the procedure:
as §1

A further data set relates to CEM. Kind of data set: Growth inhibition (GI50), Cell Titer Blue. The format is cell-based. The conditions noted are these: Homo sapiens, CCRF-CEM, Acute Lymphoblastic Leukemia, 96 hrs post-treatment. How it is done: as §1
A further data set concerns RS-4-11. Kind of data set: Growth inhibition (GI50), Cell Titer Blue. In kind it is cell-based. The following applies: Homo sapiens, RS4-11; RS-4-11, Acute Lymphoblastic Leukemia; 96 hrs post-treatment. How it is done:
as §1

A further data set deals with HEL. The data set is described as follows: Growth inhibition (GI50), Cell Titer Blue. In kind it is cell-based. The following applies: Homo sapiens, Erythroleukemia, 96 hrs post-treatment. How it is done:
as §1

Another data set relates to Granta-519 cells. The data set is described as follows: Caspase Glo 3/7 caspase activation assay. In kind it is cell-based, human. The following applies: increasing concentrations, 24 hours. How it is done:
Figure 5 Modulation of cell cycle expression and induction of apoptosis in ON 108110-treated MCL and T-ALL cell lines (A) CEM and Granta-519 cells were treated with either DMSO or increasing concentrations of ON108110 (0.5-2.0μM) for 24 hours. Cell cycle analysis was performed using propidium iodide staining. (B) CEM, HBL-2, RS4-11 and Granta-519 cells were treated with either DMSO (vehicle) or increasing concentrations of ON108110 (0.5-2.0 μM) for 24 hours and stained with Annexin V/DAPI (C) Graphical representation of apoptosis induced as shown in B. (D) Granta-519 cells were treated with increasing concentrations of ON108110 for 24 hours. Caspase activation and viability were measured using the Caspase Glo 3/7 and Cell Titer Blue assay kits, respectively. TEXT PRINTED IN THE PICTURE: (B) DMSO: 1.31; 2.34; 94.5; 1.65 | (B) ON108110: 2.21 (0.5μM); 4.32 (0.5μM); 91.1 (0.5μM); 2.37 (0.5μM); 1.64 (1.0μM); 15 (1.0μM); 80.8 (1.0μM); 2.62 (1.0μM); 4.83 (2.0μM); 60.7 (2.0μM); 28.9 (2.0μM); 5.58 (2.0μM) DOUBTS OF THE COPYIST ABOUT THIS PICTURE: Panel B: the quadrant numbers in the Annexin V/DAPI plots have no printed measure or unit. […]
Caspase-3/7 activation was measured using the Caspase-Glo® 3/7 kit as recommended by the manufacturer (Promega).

For data set [2], the system named is phospho-PTEN Ser380 and AKT Ser129 in CEM and Granta-519 cells. Kind of data set: Western blot of CK2-mediated PTEN and AKT phosphorylation. In kind it is cell-based, human. The conditions noted are these: CEM and Granta-519, 24 hours. On the procedure: Figure 6 Inhibition of CK2/CDK4 mediated signaling by ON108110 (A) CEM and (B) Granta-519 cells were treated with increasing concentrations of ON 108110 for 24 hours. Whole cell extracts were subjected to western blot analysis using antibodies directed against the indicated proteins. GAPDH is shown as a loading control.
Cells were grown as indicated, lysed in lysis buffer (20mM Tris, pH 8.0/ 137mM NaCl/ 10% glycerol/ 1% NP-40) supplemented with 1X protease and phosphatase inhibitor cocktail on ice and resolved by SDS-PAGE. The proteins were transferred to a nitrocellulose membrane and subjected to Western blot analysis using the indicated antibodies. Proteins were visualized using an Odyssey imaging system (LI-COR Biosciences).

pIC50: −log10 of the molar value.

Chain of CDK4 (P11802 whole entry): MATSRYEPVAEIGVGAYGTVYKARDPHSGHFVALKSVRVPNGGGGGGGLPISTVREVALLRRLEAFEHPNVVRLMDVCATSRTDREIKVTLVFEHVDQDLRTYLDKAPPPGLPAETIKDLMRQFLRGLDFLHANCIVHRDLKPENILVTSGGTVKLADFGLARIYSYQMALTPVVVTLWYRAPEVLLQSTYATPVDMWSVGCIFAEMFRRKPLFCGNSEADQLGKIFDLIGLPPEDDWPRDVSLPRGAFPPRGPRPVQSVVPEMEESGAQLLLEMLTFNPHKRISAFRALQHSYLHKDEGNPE
Chain of CDK4 (P24385 whole entry partner): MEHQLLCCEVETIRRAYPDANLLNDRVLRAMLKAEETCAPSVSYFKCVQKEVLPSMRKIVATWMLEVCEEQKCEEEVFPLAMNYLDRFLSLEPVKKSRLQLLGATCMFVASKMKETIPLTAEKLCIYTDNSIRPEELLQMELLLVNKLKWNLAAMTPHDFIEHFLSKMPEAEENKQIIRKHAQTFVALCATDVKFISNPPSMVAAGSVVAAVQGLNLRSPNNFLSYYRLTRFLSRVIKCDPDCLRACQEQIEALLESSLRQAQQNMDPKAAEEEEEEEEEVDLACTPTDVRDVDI
Chain of CK2α1 (P68400 whole entry): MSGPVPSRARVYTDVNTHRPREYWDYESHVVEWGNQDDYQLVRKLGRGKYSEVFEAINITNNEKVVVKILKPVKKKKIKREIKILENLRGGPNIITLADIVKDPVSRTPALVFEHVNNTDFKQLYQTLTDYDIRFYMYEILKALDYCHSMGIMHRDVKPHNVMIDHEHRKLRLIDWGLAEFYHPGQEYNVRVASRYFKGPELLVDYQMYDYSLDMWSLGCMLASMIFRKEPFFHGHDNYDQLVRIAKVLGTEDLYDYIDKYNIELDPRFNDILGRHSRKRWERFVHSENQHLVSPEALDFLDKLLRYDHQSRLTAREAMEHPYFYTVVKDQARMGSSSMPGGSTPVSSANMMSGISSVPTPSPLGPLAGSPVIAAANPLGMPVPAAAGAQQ

Take `CC(=O)Oc1ccc(/C=C2\Sc3ccc(F)cc3NC2=O)cc1[N+](=O)[O-]` [ON108110]: the “fold higher cytotoxicity against MCLs and T-ALLs compared to other tumor types” value in data set [1] is 10-20 fold. Moreover, the values for the pIC50 at CK2α2, on CDK4 and at CK2α1 were 8.70, 8.22 and 8.52, respectively. For the same compound, the GI50 came to 2.6 µM in the data set on MiaPaca-2; 2.5 µM with BT-20; 0.5 µM in the data set with MOLT-4; 0.18 µM in the data set with CEM; 0.24 µM in the data set on RS-4-11; 0.9 µM in the data set on HEL. For the same compound, the “Caspase activity and PARP cleavage” value with Granta-519 cells is “increased as a function of cell death”. In [2], the “level of AKT Ser129” value is listed as “reduction”. The “level of phospho-PTEN Ser380” value in data set [2] was “lower levels”.
